# Reference: patent publication US20250042884A1, “3-ARYLOXYL-3-FIVE-MEMBERED HETEROARYL PROPYLAMINE COMPOUND AND USE THEREOF” (Shanghai Leado Pharmatech Co. Ltd., priority 2018, published 2025)
# Where two headings read alike, the source gives them in different places.
# Target: TRPA1 (Mus musculus (Mouse), UniProt Q8BLA8)
# Experiment: IonWorks Barracuda (IWB) automated patch clamp detection of TRPA1 inhibitory activity
# Format: cell-based
# Conditions: for IC50: HEK293 cells stably expressing TRPA1
# Method: The inhibitory activity of some compounds in the examples of the present invention (as shown in Table 1) on transient receptor potential channel protein TRPA1 was tested in this example. The compound of formula A (WO2010075353) was used as a positive control compound: […]
# Ion Works Barracuda (IWB) automated patch clamp detection was used as test method: HEK293 cells stably expressing TRPA1 were placed in DMEM medium containing 15 μg/mL Blasticidin S HCl, 200 μg/mL Hygromycin B and 10% FBS in the T175 culture flask, and cultured in 37° C., 5% CO2 incubator. When the cell density reached about 80%, the culture medium was removed, rinsed with phosphate buffered saline (PBS) without calcium and magnesium. 3 mL of Trypsin was added to digest for 2 min, 7 mL of culture medium was added to terminate the digestion. The cells were collected to 15 mL centrifuge tube and centrifuged at 800 rpm for 3 min. After the supernatant was removed, the cells were added to appropriate volume of extracellular fluid for re-suspending, and the cell density was controlled at 2-3×10^6/mL for IWB experiment. Extracellular fluid formulation (in mM): 140 NaCl, 5 KCl, 1 MgCl2, 10 HEPES, 0.5 EGTA, 10 Glucose (pH 7.4); intracellular fluid formulation (in mM): 140 CsCl, 10 HEPES, 5 EGTA, 0.1 CaCl2, 1 MgCl2 (pH 7.2). 28 mg/mL of amphotericin B was freshly prepared with DMSO on the day of experiment, and then final concentration of 0.1 mg/mL was prepared with intracellular fluid.
# Population patch clamp (PPC) plate was used in IWB experiment. The entire detection process was automatically carried out by the instrument. Extracellular fluid was added into 384 wells of PPC plate, and 6 µL of the intracellular fluid was added into plenum (under the PPC plate), 6 µL of cell fluid was added for sealing test, and finally the intracellular fluid in plenum was replaced with amphotericin B-containing intracellular fluid to establish a whole-cell recording mode after perforating sealed cells. The sampling frequency for recording TPRA1 current was 10 kHz, the cells were clamped at 0 mV, the voltage stimulation command (channel protocol) was a ramp voltage from −100 mV to +100 mV for 300 ms. This voltage stimulation was applied every 10 s, mTRPA1current was induced by 300 µM AITC.
# Data recording and current amplitude measurement export were carried out by IWB software (version 2.5.3, Molecular Devices Corporation, Union City, CA). No statistics was recorded for holes with sealing impedance lower than 20 MQΩ. The original current data was corrected by software for leakage reduction. TRPA1 current amplitude was measured at +100 mV. […] If IC50 value of HC030031 exceeded 3 times the average IC50 value previously obtained on each plate, it would be re-tested. The dose-effect curve of compounds and IC50 were fitted and calculated by GraphPad Prism 5.02 (GraphPad Software, San Diego, CA).
# Some compounds in the examples of the present invention were detected by lonWorks Barracuda (IWB) automated patch clamp detection method for IC50 inhibitory activity.
# Chain of TRPA1 (Q8BLA8 whole entry): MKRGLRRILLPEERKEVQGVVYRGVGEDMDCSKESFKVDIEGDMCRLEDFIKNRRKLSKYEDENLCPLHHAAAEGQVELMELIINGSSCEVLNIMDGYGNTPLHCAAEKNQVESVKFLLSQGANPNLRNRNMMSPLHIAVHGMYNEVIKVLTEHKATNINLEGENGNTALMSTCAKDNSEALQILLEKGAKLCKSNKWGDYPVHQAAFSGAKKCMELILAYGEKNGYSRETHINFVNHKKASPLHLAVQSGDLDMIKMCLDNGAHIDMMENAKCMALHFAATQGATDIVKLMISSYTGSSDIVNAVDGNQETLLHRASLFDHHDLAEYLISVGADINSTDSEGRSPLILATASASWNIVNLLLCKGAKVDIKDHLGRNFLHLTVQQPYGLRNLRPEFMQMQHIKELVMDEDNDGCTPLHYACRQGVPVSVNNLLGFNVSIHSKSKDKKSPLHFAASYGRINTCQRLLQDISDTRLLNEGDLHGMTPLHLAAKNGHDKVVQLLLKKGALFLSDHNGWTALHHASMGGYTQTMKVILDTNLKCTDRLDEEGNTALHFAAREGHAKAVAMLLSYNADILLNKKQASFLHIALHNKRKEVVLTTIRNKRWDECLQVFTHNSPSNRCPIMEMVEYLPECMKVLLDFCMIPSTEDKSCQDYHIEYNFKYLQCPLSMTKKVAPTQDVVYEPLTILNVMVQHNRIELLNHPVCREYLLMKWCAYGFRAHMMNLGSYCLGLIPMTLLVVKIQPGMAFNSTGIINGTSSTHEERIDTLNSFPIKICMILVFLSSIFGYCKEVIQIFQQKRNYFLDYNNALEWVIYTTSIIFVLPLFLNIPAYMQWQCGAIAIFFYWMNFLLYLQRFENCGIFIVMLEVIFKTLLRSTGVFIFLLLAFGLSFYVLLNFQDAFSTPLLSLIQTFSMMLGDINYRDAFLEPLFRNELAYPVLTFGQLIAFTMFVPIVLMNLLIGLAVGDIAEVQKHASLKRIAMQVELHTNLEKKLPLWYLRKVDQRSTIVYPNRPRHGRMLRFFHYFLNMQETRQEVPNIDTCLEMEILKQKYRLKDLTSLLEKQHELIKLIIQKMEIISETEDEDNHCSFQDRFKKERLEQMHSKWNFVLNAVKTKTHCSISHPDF
compound,measurement,setting,value
"CNCC[C@@H](Oc1cccc2ccoc12)c1cccs1 [Compound I-1, (R)-3-(benzofuran-7-yloxy)-N-methyl-3-(thiophen-2-yl)propyl-1-amine]",IC50,"FIG. 1, read-out: IC50 on TRPA1, automated patch clamp",2.06 µM
same,IC50,"current induced by AITC, read-out: IC50 (μM), inhibitory activity on TRPA1 in the automated patch clamp detection test",1 to 5 µM
same,"activity ratio, IC50 of compound C2/IC50 of compound I-1","TRPA1, automated patch clamp",about 6.3
